From patent US10874669B2 (WAYNE STATE UNIVERSITY, priority 2018, dated 2020) come the findings set out here.

One experiment deals with cloned D2L receptors (Rattus norvegicus (Rat), UniProt P61169). Nature of the experiment: [3H]spiperone displacement, cloned D2L receptors in HEK cells. Type of experiment: binding. The following applies: means±SEM for 3 experiments. The text has this: The following table provides inhibition constants for displacing [3H]spiperone binding to the cloned D2L and D3 receptors expressed in HEK cells. […] NR=Not repeated.
Sequence of cloned D2L receptors (P61169 whole entry): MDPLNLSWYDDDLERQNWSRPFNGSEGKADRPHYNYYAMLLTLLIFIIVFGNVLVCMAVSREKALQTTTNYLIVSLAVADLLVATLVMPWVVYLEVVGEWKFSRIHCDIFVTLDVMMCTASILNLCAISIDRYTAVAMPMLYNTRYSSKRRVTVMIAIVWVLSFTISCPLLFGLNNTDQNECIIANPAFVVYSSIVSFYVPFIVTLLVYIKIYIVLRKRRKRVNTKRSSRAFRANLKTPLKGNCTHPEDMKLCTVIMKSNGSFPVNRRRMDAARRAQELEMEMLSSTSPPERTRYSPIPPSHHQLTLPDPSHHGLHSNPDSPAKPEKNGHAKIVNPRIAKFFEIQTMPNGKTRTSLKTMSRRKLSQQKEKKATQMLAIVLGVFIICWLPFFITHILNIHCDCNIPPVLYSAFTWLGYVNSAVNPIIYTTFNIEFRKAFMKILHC

The next experiment addresses cloned D3 receptors (Rattus norvegicus (Rat), UniProt P19020). Briefly: [3H]spiperone displacement, cloned D3 receptors in HEK cells. The class given is binding. The following applies: means±SEM for 3 experiments. The text has this: The following table provides inhibition constants for displacing [3H]spiperone binding to the cloned D2L and D3 receptors expressed in HEK cells. Results are means±SEM for 3 experiments each performed in triplicate. NR=Not repeated.

For another experiment, the target named is cloned rat D2L receptors (Rattus norvegicus (Rat), UniProt P61169). Briefly: [3H]spiroperidol competition binding, rat D2L receptors in HEK-293 cells. Particulars: values of Table 3; for Ki: rat D2 in HEK-293 cells; for D2/D3: ratio of Ki values. The text has this: (§1) All these procedures were described by us previously.
Sequence of cloned rat D2L receptors (P61169 whole entry): as above
A further experiment has as its target cloned rat D3 receptors (Rattus norvegicus (Rat), UniProt P19020). Nature of the experiment: [3H]spiroperidol competition binding, rat D3 receptors in HEK-293 cells. Particulars: rat D3 in HEK-293 cells; values of Table 3. As to the method: A well established radioligand competition assay was carried out to evaluate binding affinity of the test compounds and were compared with that of the reference agent (S)-5-OH-DPAT (Table 3). Binding affinity to rat DA D2 and D3 receptors expressed in HEK-293 cells was determined as described by us previously. […] This indicated highest tolerance of the 4-substituted carbazole derivative for interaction with the D2 and D3 receptors.
as §1

A further experiment addresses human DA D2 receptors (Homo sapiens (Human), UniProt P14416). Nature of the experiment: [35S]GTPγS binding stimulation, human D2 receptors in CHO cells. Type of experiment: biochemical. (In general: GTPγS is a poorly hydrolysed GTP analogue; its binding reports G protein activation.)
The target in another experiment is human DA D3 receptors (Homo sapiens (Human), UniProt P35462). Nature of the experiment: [35S]GTPγS binding stimulation, human D3 receptors in CHO cells. Type of experiment: biochemical.
Sequence of human DA D3 receptors (P35462 whole entry): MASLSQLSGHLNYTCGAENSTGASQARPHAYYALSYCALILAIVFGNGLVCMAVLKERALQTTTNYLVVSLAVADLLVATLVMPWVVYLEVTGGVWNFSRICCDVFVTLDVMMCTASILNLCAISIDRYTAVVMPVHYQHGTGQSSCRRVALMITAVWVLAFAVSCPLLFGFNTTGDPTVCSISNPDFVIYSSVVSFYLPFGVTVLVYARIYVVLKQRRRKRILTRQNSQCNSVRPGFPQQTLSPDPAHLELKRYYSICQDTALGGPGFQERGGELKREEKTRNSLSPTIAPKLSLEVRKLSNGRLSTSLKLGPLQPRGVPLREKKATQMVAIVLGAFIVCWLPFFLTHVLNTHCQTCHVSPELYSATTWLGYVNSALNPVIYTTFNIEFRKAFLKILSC
Experiment [1] relates to reserpine-induced hypolocomotion in rats. Nature of the experiment: Reversal of reserpine-induced hypolocomotion in rats. The following applies: 10 μMol/kg, ip.
Method: In this model depletion of catecholamines by reserpine results in catalepsy in rats.
The following commercially available drug was used in the experiment: reserpine hydrochloride (Alfa Aesar). […] The compounds for this study were administered in a volume of 0.1-0.2 mL for subcutaneous administration and 0.5-0.7 ml for interaperitoneal administration into each rat.
In rodent studies, animals were male and female Sprague-Dawley rats from Harlan (Indianapolis, Ind.) weighing 220-225 g unless otherwise specified. Animals were maintained in sawdust-lined cages in a temperature and humidity controlled environment at 22±1° C. and 60±5% humidity, respectively. A 12 h light/dark cycle was maintained, with lights on from 6:00 a.m. to 6:00 p.m. They were group-housed with unrestricted access to food and water. All experiments were performed during the light component.
Reserpine (5.0 mg/kg, sc) was administered 18 h before the injection of drug or vehicle. The rats were placed individually in the chambers for 1 h for acclimatization before administration of the test drugs or vehicle. Immediately after administration of drug or vehicle, animals were individually placed in Opto-Varimex 4 animal activity monitor chamber (Columbus Instruments, Ohio, USA) to start measuring locomotor activity. Locomotion was monitored for 6 h. […] The data were presented as horizontal activity (HACTV). […] The data were analyzed by one-way analysis of variance (ANOVA) followed by Dunnett's post hoc test.
[2] abbreviates: compared with maximum stimulation by full agonist DA.

Sequence of cloned rat D3 receptors (P19020 whole entry): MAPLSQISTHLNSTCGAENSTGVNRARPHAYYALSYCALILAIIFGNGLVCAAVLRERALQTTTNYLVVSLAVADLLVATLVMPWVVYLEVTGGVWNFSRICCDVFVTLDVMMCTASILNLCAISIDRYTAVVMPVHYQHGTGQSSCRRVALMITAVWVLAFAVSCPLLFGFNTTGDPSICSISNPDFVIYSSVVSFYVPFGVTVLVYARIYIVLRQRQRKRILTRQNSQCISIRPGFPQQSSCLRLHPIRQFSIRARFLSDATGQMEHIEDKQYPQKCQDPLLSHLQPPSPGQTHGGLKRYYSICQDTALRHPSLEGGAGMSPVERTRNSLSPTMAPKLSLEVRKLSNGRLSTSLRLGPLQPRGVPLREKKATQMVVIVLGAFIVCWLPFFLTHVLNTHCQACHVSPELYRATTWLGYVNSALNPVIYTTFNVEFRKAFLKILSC
Sequence of cloned D3 receptors (P19020 whole entry): as above
Sequence of human DA D2 receptors (P14416 whole entry): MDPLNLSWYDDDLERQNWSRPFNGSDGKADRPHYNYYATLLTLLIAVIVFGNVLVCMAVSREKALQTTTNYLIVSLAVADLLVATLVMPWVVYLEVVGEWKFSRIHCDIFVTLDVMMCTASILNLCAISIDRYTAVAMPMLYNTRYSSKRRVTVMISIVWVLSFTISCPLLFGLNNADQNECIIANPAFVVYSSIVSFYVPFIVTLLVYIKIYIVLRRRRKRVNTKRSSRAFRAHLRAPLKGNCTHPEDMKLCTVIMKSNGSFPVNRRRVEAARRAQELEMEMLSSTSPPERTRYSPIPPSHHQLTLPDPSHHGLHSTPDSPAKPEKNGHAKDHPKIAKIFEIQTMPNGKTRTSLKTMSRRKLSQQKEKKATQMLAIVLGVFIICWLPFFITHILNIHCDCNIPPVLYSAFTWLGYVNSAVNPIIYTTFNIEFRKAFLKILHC

Consider `CCCN(CCCCCc1ccc(O)c(OC)c1)[C@@H]1CCc2nc(N)sc2C1` [(−)-23, (R)-4-(5-((2-Amino-4,5,6,7-tetrahydrobenzo[d]thiazol-6-yl)(propyl)amino)pentyl)-2-methoxyphenol], for which the Ki on cloned D2L receptors turned out to be 68.3 ± 12 nM; at cloned D3 receptors, 1.57 ± 0.41 nM.

In the case of `CCCN(CCCCCc1ccc(O)c(O)c1)[C@@H]1CCc2nc(N)sc2C1` [(−)-34, (R)-4-(5-((2-Amino-4,5,6,7-tetrahydrobenzo[d]thiazol-6-yl)(propyl)amino)pentyl)benzene-1,2-diol], the values for the inhibitory constant (Ki) on cloned D2L receptors and at cloned D3 receptors were 65.7 ± 11.7 nM and 1.42 ± 0.14 nM, respectively.

Turning to `CCCN(CCCCCc1cc(O)ccc1O)[C@@H]1CCc2nc(N)sc2C1` [(−)-36, (R)-2-(5-((2-Amino-4,5,6,7-tetrahydrobenzo[d]thiazol-6-yl)(propyl)amino)pentyl)benzene-1,4-diol], affinity at cloned D3 receptors was put at a Ki of 0.78 ± 0.2 nM.

`CCCN(CCN1CCN(c2ccc3c(c2)[nH]c2ccccc23)CC1)[C@H]1CCc2nc(N)sc2C1` [(−)-91a, (S)—N^6-(2-(4-(9H-carbazol-2-yl)piperazin-1-yl)ethyl)-N^6-propyl-4,5,6,7-tetrahydrobenzo[d]thiazole-2,6-diamine]: at cloned rat D2L receptors, the Ki was 504 nM and the D2/D3 came to 128. Moreover, the affinity at cloned rat D3 receptors, expressed as Ki, was 3.94 nM.

Take `CCCN(CCN1CCN(c2cccc3[nH]c4ccccc4c23)CC1)[C@H]1CCc2nc(N)sc2C1` [(−)-91c, (S)—N^6-(2-(4-(9H-carbazol-4-yl)piperazin-1-yl)ethyl)-N^6-propyl-4,5,6,7-tetrahydrobenzo[d]thiazole-2,6-diamine]: the EC50 stood at 22.2 nM at human DA D2 receptors (CHO cells, read-out: EC50 (GTPγS), D2) and 1.67 nM on human DA D3 receptors (CHO cells, read-out: EC50 (GTPγS), D3). Moreover, the Emax came out at 57% on human DA D2 receptors (setting [2]) and 82% at human DA D3 receptors (setting [2]).

As for `CCCN(CCN1CCN(c2ccc3[nH]c4ccccc4c3c2)CC1)[C@H]1CCc2c(O)cccc2C1` [(−)-95b, (S)-6-((2-(4-(9H-carbazol-3-yl)piperazin-1-yl)ethyl)(propyl)amino)-5,6,7,8-tetra-hydronaphthalen-1-ol], the Ki on cloned rat D2L receptors came out at 61.6 nM; at cloned rat D3 receptors, 1.94 nM.

For the molecule `CCCN(CCN1CCN(CCn2c3ccccc3c3ccccc32)CC1)[C@H]1CCc2nc(N)sc2C1` [(−)-101, (S)—N^6-(2-(4-(2-(9H-carbazol-9-yl)ethyl)piperazin-1-yl)ethyl)-N^6-propyl-4,5,6,7-tetrahydrobenzo[d]thiazole-2,6-diamine], the Ki was 82.6 nM at cloned rat D2L receptors and 7.18 nM at cloned rat D3 receptors. The D2/D3 at cloned rat D2L receptors is listed as 12.

Regarding `CCCN(CCCc1ccc(O)c(OC)c1)C1CCc2nc(N)sc2C1` (centres unmarked) [Compound 22, 4-(3-((2-Amino-4,5,6,7-tetrahydrobenzo[d]thiazol-6-yl)(propyl)amino)propyl)-2-methoxyphenol], the Ki on cloned D2L receptors is 2400 nM; at cloned D3 receptors, 15.8 ± 2 nM.

At cloned D2L receptors, `CCCN(CCCCCc1ccc(O)c(OC)c1)C1CCc2nc(N)sc2C1` (centres unmarked) [Compound 23, 4-(5-((2-Amino-4,5,6,7-tetrahydrobenzo[d]thiazol-6-yl)(propyl)amino)pentyl)-2-methoxyphenol] showed a Ki of 175 ± 8 nM.

Regarding `CCCN(CCCCCc1ccc(O)c(O)c1)C1CCc2nc(N)sc2C1` (centres unmarked) [Compound 34, 4-(5-((2-Amino-4,5,6,7-tetrahydrobenzo[d]thiazol-6-yl)(propyl)amino)pentyl)benzene-1,2-diol], the Ki at cloned D2L receptors is 116 ± 8 nM; on cloned D3 receptors it was 2.59 ± 0.31 nM.

The molecule `CCCN(CCCCCc1cc(O)ccc1O)C1CCc2nc(N)sc2C1` (centres unmarked) [Compound 35, 2-(5-((2-Amino-4,5,6,7-tetrahydrobenzo[d]thiazol-6-yl)(propyl)amino)pentyl)benzene-1,4-diol] yielded an inhibition constant Ki on cloned D3 receptors of 1.01 ± 0.28 nM.

`CCCN(CCC/C=C\c1ccc(O)c(OC)c1)C1CCc2nc(N)sc2C1` (centres unmarked) [Compound 39, (Z)-4-(5-((2-amino-4,5,6,7-tetrahydrobenzo[d]thiazol-6-yl)(propyl)amino)pent-1-en-1-yl)-2-methoxyphenol]: the values for the Ki on cloned D2L receptors and on cloned D3 receptors were 233 ± 8 nM and 23.3 ± 4 nM, respectively.

Take `CCCN(CCCC1(O)C=CC(O)=CC1)C1CCc2nc(N)sc2C1` (centres unmarked) [Compound 54, 4-(3-((2-Amino-4,5,6,7-tetrahydrobenzo[d]thiazol-6-yl)(propyl)amino)propyl)-benzene-1,4-diol]: affinity on cloned D3 receptors was put at a Ki of 11.9 ± 1.9 nM.

`CCCN(C/C=C/c1ccc(O)c(OC)c1)C1CCc2nc(N)sc2C1` (centres unmarked) [Compound 63, (E)-4-(3-((2-amino-4,5,6,7-tetrahydrobenzo[d]thiazol-6-yl)(propyl)amino)prop-1-en-1-yl)-2-methoxyphenol]: the Ki on cloned D2L receptors amounted to 4630 nM; on cloned D3 receptors it was 39.1 ± 5.4 nM.

`CCCN(CCN1CCN(c2ccc3c(c2)C(=O)C(=O)N3)CC1)[C@H]1CCc2nc(N)sc2C1` [Compound 70]: the Ki on cloned D2L receptors is 162 ± 7 nM; at cloned D3 receptors, 14.2 ± 3.8 nM.

With `CCCN(CCN1CCN(c2ccc3c(c2)[nH]c2ccccc23)CC1)C1CCc2nc(N)sc2C1` (centres unmarked) [Compound 90a, N^6-(2-(4-(9H-carbazol-2-yl)piperazin-1-yl)ethyl)-N^6-propyl-4,5,6,7-tetrahydrobenzo-[d]thiazole-2,6-diamine], at cloned rat D2L receptors, the inhibition constant Ki was determined as 902 nM and the D2/D3 was 146. Further, on cloned rat D3 receptors, the Ki amounted to 6.18 nM.

On to `CCCN(CCN1CCN(c2ccc3[nH]c4ccccc4c3c2)CC1)C1CCc2nc(N)sc2C1` (centres unmarked) [Compound 90b, N^6-(2-(4-(9H-carbazol-3-yl)piperazin-1-yl)ethyl)-N^6-propyl-4,5,6,7-tetrahydrobenzo[d]thiazole-2,6-diamine], for which the Ki on cloned rat D2L receptors came to 612 nM; on cloned rat D3 receptors, 3.12 nM. Moreover, the D2/D3 on cloned rat D2L receptors amounted to 196.

Take `CCCN(CCN1CCN(c2cccc3[nH]c4ccccc4c23)CC1)C1CCc2nc(N)sc2C1` (centres unmarked) [Compound 90c, N^6-(2-(4-(9H-carbazol-4-yl)piperazin-1-yl)ethyl)-N^6-propyl-4,5,6,7-tetrahydrobenzo[d]thiazole-2,6-diamine]: the inhibition constant Ki was 76.9 nM at cloned rat D2L receptors and 7.8 nM on cloned rat D3 receptors. The D2/D3 on cloned rat D2L receptors was determined as 9.86.

Take `CCCN(CCN1CCN(CCn2c3ccccc3c3ccccc32)CC1)C1CCc2nc(N)sc2C1` (centres unmarked) [Compound 100, N^6-(2-(4-(2-(9H-carbazol-9-yl)ethyl)piperazin-1-yl)ethyl)-N^6-propyl-4,5,6,7-tetrahydrobenzo[d]thiazole-2,6-diamine]: at cloned rat D2L receptors, affinity was put at a Ki of 435 nM and the D2/D3 was 65.9. The same molecule yielded a Ki on cloned rat D3 receptors of 6.6 nM.

`CCCN(CCC)CCc1cccc2c1CC(=O)N2` [ropinirole, reference compound]: in experiment [1] (locomotion monitored for 6 h), the “duration of locomotor activation” value is “shorter duration of action”. In addition, the “reversal of reserpine-induced akinesia / hypolocomotion (horizontal activity)” value in experiment [1] (reserpine 5 mg/kg sc, 18 h pretreatment, rats) was “fast onset of activation of locomotion”.

By Ki is commonly meant a measure of affinity in units of concentration, obtained from inhibition or displacement. Higher therefore signals lower affinity. What is called EC50 is the concentration that produces a half-maximal response. Usually Emax stands for the greatest response seen or fitted, relative to the assay's reference.
